Assay results reported in patent US12540120B2, “Herbicidal compounds” (SYNGENTA CROP PROTECTION AG, priority 2019, dated 2026).

Key:
Format in all cases: in vivo
[1] = system: Amaranthus retoflexus (AMARE); assay: B5 Pre-Emergence Efficacy—Test 2; settings: 250 g/ha, evaluated after 13 days
Protocol: (§1) B5 Pre-Emergence Efficacy—Test 2 Seeds of a variety of test species were sown in standard soil in pots: Solanum nigrum (SOLNI), Amaranthus retoflexus (AMARE), Setaria faberi (SETFA), Echinochloa crus-galli (ECHCG), Ipomoea hederacea (IPOHE), Lolium perenne (LOLPE). After cultivation for one day (pre-emergence) under controlled conditions in a glasshouse (at 24/16° C., day/night; 14 hours light; 65% humidity), the plants were sprayed with an aqueous spray solution derived from the formulation of the technical active ingredient in acetone/water (50:50) solution containing 0.5% Tween 20 (polyoxyethelyene sorbitan monolaurate, CAS RN 9005-64-5). Compounds are applied at 250 g/ha. The test plants were then grown in a glasshouse under controlled conditions (at 24/16° C., day/night; 14 hours light; 65% humidity) and watered twice daily. After 13 days, the test is evaluated for the percentage damage caused to the plant. The biological activities are assessed on a five point scale (5=80-100%; 4=60-79%; 3=40-59%; 2=20-39%; 1=0-19%). A blank value in the table is indicative that the compound was not tested on that species.

[2] = system: Solanum nigrum (SOLNI); assay: B5 Pre-Emergence Efficacy—Test 2; settings: 250 g/ha, evaluated after 13 days
Protocol: as §1

[3] = system: Echinochloa crus-galli (ECHCG); assay: B5 Pre-Emergence Efficacy—Test 2; parameters: key: 5-point scale: 5=80-100%, 4=60-79%, 3=40-59%, 2=20-39%, 1=0-19% damage; settings: 250 g/ha, evaluated after 13 days
Protocol: as §1

[4] = system: Setaria faberi (SETFA); assay: B5 Pre-Emergence Efficacy—Test 2; parameters: key: 5-point scale: 5=80-100%, 4=60-79%, 3=40-59%, 2=20-39%, 1=0-19% damage; settings: 250 g/ha, evaluated after 13 days
Protocol: as §1

[5] = system: Ipomoea hederacea (IPOHE); assay: B5 Pre-Emergence Efficacy—Test 2; parameters: key: 5-point scale: 5=80-100%, 4=60-79%, 3=40-59%, 2=20-39%, 1=0-19% damage; settings: 250 g/ha, evaluated after 13 days
Protocol: as §1

[6] = system: Lolium perenne (LOLPE); assay: B5 Pre-Emergence Efficacy—Test 2; parameters: key: 5-point scale: 5=80-100%, 4=60-79%, 3=40-59%, 2=20-39%, 1=0-19% damage; settings: 250 g/ha, evaluated after 13 days
Protocol: as §1

[7] = system: Echinochloa crus-galli (ECHCG); assay: B2 Post-Emergence Efficacy—Test 2; settings: post-emergence application, 250 g/ha, evaluated after 13 days (Test 2)
Protocol: (§2) B2 Post-Emergence Efficacy—Test 2 Seeds of a variety of test species are sown in standard soil in pots:—Solanum nigrum (SOLNI), Amaranthus retoflexus (AMARE), Setaria faberi (SETFA), Echinochloa crus-galli (ECHCG), Ipomoea hederacea (IPOHE), Lolium perenne (LOLPE). After 8 days cultivation (post-emergence) under controlled conditions in a glasshouse (at 24/16° C., day/night; 14 hours light; 65% humidity), the plants are sprayed with an aqueous spray solution derived from the formulation of the technical active ingredient in acetone/water (50:50) solution containing 0.5% Tween 20 (polyoxyethylene sorbitan monolaurate, CAS RN 9005-64-5). Compounds are applied at 250 g/ha. The test plants are then grown in a glasshouse under controlled conditions in a glasshouse (at 24/16° C., day/night; 14 hours light; 65% humidity) and watered twice daily. After 13 days, the test is evaluated for the percentage damage caused to the plant. The biological activities are assessed on a five point scale (5=80-100%; 4=60-79%; 3=40-59%; 2=20-39%; 1=0-19%). A blank value in the table is indicative that the compound was not tested on that species.

[8] = system: Setaria faberi (SETFA); assay: B2 Post-Emergence Efficacy—Test 2; settings: post-emergence application, 250 g/ha, evaluated after 13 days (Test 2)
Protocol: as §2

[9] = system: Amaranthus retoflexus (AMARE); assay: B2 Post-Emergence Efficacy—Test 2; settings: post-emergence application, 250 g/ha, evaluated after 13 days (Test 2)
Protocol: as §2

[10] = system: Solanum nigrum (SOLNI); assay: B2 Post-Emergence Efficacy—Test 2; settings: post-emergence application, 250 g/ha, evaluated after 13 days (Test 2)
Protocol: as §2

[11] = system: Ipomoea hederacea (IPOHE); assay: B2 Post-Emergence Efficacy—Test 2; settings: post-emergence application, 250 g/ha, evaluated after 13 days (Test 2)
Protocol: as §2

[12] = system: Lolium perenne (LOLPE); assay: B2 Post-Emergence Efficacy—Test 2; settings: post-emergence application, 250 g/ha, evaluated after 13 days (Test 2)
Protocol: as §2

SMILES	Control of weed species after pre-emergence application, AMARE (percentage damage, five point scale) [1]	Control of weed species after pre-emergence application, SOLNI (percentage damage, five point scale) [2]	Control of weed species after pre-emergence application, ECHCG (percentage damage, five point scale) [3]	Control of weed species after pre-emergence application, SETFA (percentage damage, five point scale) [4]	Control of weed species after pre-emergence application, IPOHE (percentage damage, five point scale) [5]	Control of weed species after pre-emergence application, LOLPE (percentage damage, five point scale) [6]	percentage damage caused to the plant, five point scale, ECHCG [7]	percentage damage caused to the plant, five point scale, SETFA [8]	percentage damage caused to the plant, five point scale, AMARE [9]	percentage damage caused to the plant, five point scale, SOLNI [10]	percentage damage caused to the plant, five point scale, IPOHE [11]	percentage damage caused to the plant, five point scale, LOLPE [12]
Cc1nn(C)c(=O)c(-c2c(F)ccc(Cl)c2CCc2cccc(C#N)c2)c1OC(=O)C(C)C [Compound A-3.030]	5 (5=80-100%)	5 (5=80-100%)	4 (4=60-79%)	5 (5=80-100%)	3 (3=40-59%)	4 (4=60-79%)	2 (2=20-39%)	5 (5=80-100%)	5 (5=80-100%)	5 (5=80-100%)	5 (5=80-100%)	4 (4=60-79%)
CNc1ccc(CCc2c(Cl)ccc(F)c2-c2c(O)c(C)nn(C)c2=O)cc1 [Compound A-1.034]	0	2 (2=20-39%)	0	0	0	0	1 (1=0-19%)	5 (5=80-100%)	5 (5=80-100%)	5 (5=80-100%)	5 (5=80-100%)	5 (5=80-100%)
CCN(C)C(=O)c1ccc(CCc2c(Cl)ccc(F)c2-c2c(O)c(C)nn(C)c2=O)cc1F [Compound A-1.028, 4-[2-[6-chloro-3-fluoro-2-(5-hydroxy-2,6-dimethyl-3-oxo-pyridazin-4-yl)phenyl]ethyl]-N-ethyl-2-fluoro-N-methyl-benzamide]	5 (5=80-100%)	5 (5=80-100%)	4 (4=60-79%)	5 (5=80-100%)	5 (5=80-100%)	5 (5=80-100%)	5 (5=80-100%)	5 (5=80-100%)	5 (5=80-100%)	5 (5=80-100%)	5 (5=80-100%)	5 (5=80-100%)
Cc1nn(C)c(=O)c(-c2c(F)ccc(Cl)c2CCc2ccc(S(=O)(=O)N(C)C)cc2)c1O [Compound A-1.025]	5 (5=80-100%)	5 (5=80-100%)	5 (5=80-100%)	5 (5=80-100%)	1 (1=0-19%)	4 (4=60-79%)	5 (5=80-100%)	5 (5=80-100%)	5 (5=80-100%)	5 (5=80-100%)	5 (5=80-100%)	5 (5=80-100%)
